Source: patent publication US20160095855A1, “USE OF A POLYMORPH OF FLIBANSERIN FOR TREATING DISEASE” (Sprout Pharmaceuticals, Inc., priority 2001, published 2016)

Assays:
5-HT1A receptor = target: T1, 5-HT1A receptor (Homo sapiens, UniProt P08908); conditions: qualitative background statement; cited from earlier work
T1 sequence (P08908 1-422): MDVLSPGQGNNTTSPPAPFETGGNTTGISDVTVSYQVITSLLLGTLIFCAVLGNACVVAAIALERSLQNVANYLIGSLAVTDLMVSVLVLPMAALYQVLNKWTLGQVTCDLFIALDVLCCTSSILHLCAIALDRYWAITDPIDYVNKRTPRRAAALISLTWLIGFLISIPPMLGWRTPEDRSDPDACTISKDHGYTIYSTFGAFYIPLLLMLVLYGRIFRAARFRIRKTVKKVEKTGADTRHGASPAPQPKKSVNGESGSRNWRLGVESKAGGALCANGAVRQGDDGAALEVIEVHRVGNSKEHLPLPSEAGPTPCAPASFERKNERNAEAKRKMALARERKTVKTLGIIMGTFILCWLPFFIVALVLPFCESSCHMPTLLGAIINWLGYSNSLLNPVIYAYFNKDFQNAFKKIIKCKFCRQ

5-HT2-receptor = conditions: qualitative background statement; cited from earlier work
[1] = stability under mechanical stress produced by grinding; assay type: physicochemical; conditions: solid state, crystalline modification of free base

Row | SMILES | affinity for the 5-HT1A receptor (5-HT1A receptor) | affinity for the 5-HT2-receptor (5-HT2-receptor) | stability under the effects of mechanical stress produced by grinding [1]
1 | O=c1[nH]c2ccccc2n1CCN1CCN(c2cccc(C(F)(F)F)c2)CC1 [Flibanserin, 1-[2-(4-(3-trifluoromethyl-phenyl)piperazin-1-yl)ethyl]-2,3-dihydro-1H-benzimidazol-2-one] | shows affinity | shows affinity | 
2 | O=c1[nH]c2ccccc2n1CCN1CCN(c2cccc(C(F)(F)F)c2)CC1 [polymorph A, 1-[2-(4-(3-trifluoromethyl-phenyl)piperazin-1-yl)ethyl]-2,3-dihydro-1H-benzimidazol-2-one] |  |  | fulfill the aforementioned stability requirements
3 | O=c1[nH]c2ccccc2n1CCN1CCN(c2cccc(C(F)(F)F)c2)CC1 [polymorph B, 1-[2-(4-(3-trifluoromethyl-phenyl)piperazin-1-yl)ethyl]-2,3-dihydro-1H-benzimidazol-2-one] |  |  | little stability
